# Assay results taken from US20260022142A1, “MACROCYCLIC IMMUNOMODULATORS” (Bristol-Myers Squibb Company, priority 2022, published 2026).
# Numbered stars: 1 amine (or outer) side, 2 acyl side, 3 side chain; on linkers, the order of the positions; unused ones are H or OH. Bridge positions count the residues as written; N and C are the ends. Square brackets hold non-standard residues; d marks the D form. Peptide text beside a SMILES is read from it. * marks the point of attachment. Bip = N[C@@H](Cc1ccc(-c2ccccc2)cc1)C(=O)O; X10 = O=C([C@H](Cc1cc[nH]c1)N[*:1])[*:2]; Phe(3-Me) = Cc1cccc(C[C@H](N)C(=O)O)c1; Cha = N[C@@H](CC1CCCCC1)C(=O)O; Cit = NC(=O)NCCC[C@H](N)C(=O)O; Carboxymethyl = O=C(O)C*; Orn = NCCC[C@H](N)C(=O)O; Aun = NCCCCCCCCCCC(=O)O; Dab = NCC[C@H](N)C(=O)O; Dap = NC[C@H](N)C(=O)O
# Target: T1, PD-1/PD-L1 interaction (PE-labeled human PD-L1-Ig binding to Jurkat cell line over-expressing human PD-1) (Homo sapiens, UniProt Q15116)
# T1 construct: expressed in transfected cells; host or cells: Jurkat
# T1 sequence (Q15116 25-288): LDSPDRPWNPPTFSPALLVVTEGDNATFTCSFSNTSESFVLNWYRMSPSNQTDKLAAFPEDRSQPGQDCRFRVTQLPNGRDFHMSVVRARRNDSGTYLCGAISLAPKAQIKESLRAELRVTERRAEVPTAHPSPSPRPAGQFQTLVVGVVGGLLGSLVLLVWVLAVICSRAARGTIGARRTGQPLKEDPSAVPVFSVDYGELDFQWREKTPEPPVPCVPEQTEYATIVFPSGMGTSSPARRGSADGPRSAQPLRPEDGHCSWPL
# Test: Jurkat-PD-1 Cell Binding High-Content Screening Assay (CBA)
# Type: cell-based
# Conditions: Jurkat cell line over-expressing human PD-1; PE-labeled PD-L1-Ig 20 nM final; read-out: Jurkat hPD1-PDL1 IC50
# Summary of the method: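 Read-out is high-content imaging of cell-bound phycoerythrin-tagged PD-L1-Ig on fixed, Hoechst-counterstained Jurkat cells that over-express human PD-1. Compound exposure lasts 2 h at 37° C before the labeled ligand (20 nM final) is added for a further hour.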
row,SMILES,IC50
1,Cc1cccc(C[C@@H]2NC(=O)[C@H](CC(=O)O)NC(=O)[C@H](Cc3ccc(O)cc3)NC(=O)[C@H](CC(N)=O)NC(=O)CSC[C@@H](C(=O)N[C@@H](CCN)C(=O)NCCCCCCCCCCC(=O)O)NC(=O)[C@@H](CCC(N)=O)NC(=O)[C@H](C(C)C)NC(=O)[C@H](CC(C)C)NC(=O)[C@H](CCN)NC(=O)[C@@H](CC(C)C)NC(=O)[C@H](CCCN)NC(=O)[C@H](CCCNC(N)=O)NC(=O)[C@H](Cc3ccc(-c4ccccc4)cc3)NC(=O)[C@H](C(C)C)NC2=O)c1 [Compound 2791] ({CH2CO}-NYD[Phe(3-Me)]V[Bip][Cit][Orn][dL][Dab]LV[dQ]C[Dab][Aun]-OH; thioether N-14),36.7 nM
2,Cc1cccc(C[C@@H]2NC(=O)[C@H](CC(=O)O)NC(=O)[C@H](Cc3ccc(O)cc3)NC(=O)[C@H](CC(N)=O)NC(=O)CSC[C@@H](C(=O)N[C@@H](CCCN)C(=O)NCCCCCCCCCCC(=O)O)NC(=O)[C@@H](CCC(N)=O)NC(=O)[C@H](C(C)C)NC(=O)[C@H](CC(C)C)NC(=O)[C@H](CCN)NC(=O)[C@@H](CC(C)C)NC(=O)[C@H](CCCN)NC(=O)[C@H](CCCNC(N)=O)NC(=O)[C@H](Cc3ccc(-c4ccccc4)cc3)NC(=O)[C@H](C(C)C)NC2=O)c1 [Compound 2792] ({CH2CO}-NYD[Phe(3-Me)]V[Bip][Cit][Orn][dL][Dab]LV[dQ]C[Orn][Aun]-OH; thioether N-14),75.7 nM
3,CC(C)C[C@H]1NC(=O)[C@H](CCCN)NC(=O)[C@H](C(C)C)NC(=O)[C@H](Cc2ccc(-c3ccccc3)cc2)NC(=O)[C@H](C(C)C)NC(=O)[C@H](Cc2c[nH]c3ccccc23)NC(=O)[C@H](CC(=O)O)NC(=O)[C@H](Cc2ccc(OCC(=O)O)cc2)NC(=O)[C@H](CN)NC(=O)CSC[C@@H](C(=O)N[C@@H](CCN)C(=O)NCCCCCCCCCCC(=O)O)NC(=O)[C@H](CCC(N)=O)NC(=O)[C@H](C(C)C)NC(=O)[C@H](CC2CCCCC2)NC(=O)[C@H](Cc2c[nH]cn2)NC1=O [Compound 2793] ({CH2CO}-[Dap]Y(Carboxymethyl)DWV[Bip]V[Orn][dL]H[Cha]VQC[Dab][Aun]-OH; thioether N-14),21.6 nM
4,CC(C)C[C@H]1NC(=O)[C@H](CCCN)NC(=O)[C@H](C(C)C)NC(=O)[C@H](Cc2ccc(-c3ccccc3)cc2)NC(=O)[C@H](C(C)C)NC(=O)[C@H](Cc2c[nH]c3ccccc23)NC(=O)[C@H](CC(=O)O)NC(=O)[C@H](Cc2ccc(OCC(=O)O)cc2)NC(=O)[C@H](CN)NC(=O)CSC[C@@H](C(=O)N[C@@H](CCCN)C(=O)NCCCCCCCCCCC(=O)O)NC(=O)[C@H](CCC(N)=O)NC(=O)[C@H](C(C)C)NC(=O)[C@H](CC2CCCCC2)NC(=O)[C@H](Cc2c[nH]cn2)NC1=O [Compound 2794] ({CH2CO}-[Dap]Y(Carboxymethyl)DWV[Bip]V[Orn][dL]H[Cha]VQC[Orn][Aun]-OH; thioether N-14),28 nM
5,CC(C)C[C@H]1NC(=O)[C@H](CCCN)NC(=O)[C@H](C(C)C)NC(=O)[C@H](Cc2ccc(-c3ccccc3)cc2)NC(=O)[C@H](C(C)C)NC(=O)[C@H](Cc2c[nH]c3ccccc23)NC(=O)[C@H](CC(=O)O)NC(=O)[C@H](Cc2ccc(OCC(=O)O)cc2)NC(=O)[C@H](CN)NC(=O)CSC[C@@H](C(=O)N[C@@H](CCN)C(=O)NCCCCCCCCCCC(=O)O)NC(=O)[C@@H](CCC(N)=O)NC(=O)[C@H](C(C)C)NC(=O)[C@H](CC2CCCCC2)NC(=O)[C@H](Cc2c[nH]cn2)NC1=O [Compound 2795] ({CH2CO}-[Dap]Y(Carboxymethyl)DWV[Bip]V[Orn][dL]H[Cha]V[dQ]C[Dab][Aun]-OH; thioether N-14),63.4 nM
6,CC(C)C[C@H]1NC(=O)[C@H](CCCN)NC(=O)[C@H](C(C)C)NC(=O)[C@H](Cc2ccc(-c3ccccc3)cc2)NC(=O)[C@H](C(C)C)NC(=O)[C@H](Cc2c[nH]c3ccccc23)NC(=O)[C@H](CC(=O)O)NC(=O)[C@H](Cc2ccc(OCC(=O)O)cc2)NC(=O)[C@H](CN)NC(=O)CSC[C@@H](C(=O)N[C@@H](CCCN)C(=O)NCCCCCCCCCCC(=O)O)NC(=O)[C@@H](CCC(N)=O)NC(=O)[C@H](C(C)C)NC(=O)[C@H](CC2CCCCC2)NC(=O)[C@H](Cc2c[nH]cn2)NC1=O [Compound 2796] ({CH2CO}-[Dap]Y(Carboxymethyl)DWV[Bip]V[Orn][dL]H[Cha]V[dQ]C[Orn][Aun]-OH; thioether N-14),78.5 nM
7,Cc1cccc(C[C@@H]2NC(=O)[C@H](CC(=O)O)NC(=O)[C@H](Cc3ccc(OCC(=O)O)cc3)NC(=O)[C@H](CCCNC(=N)N)NC(=O)CSC[C@@H](C(=O)N[C@@H](CCN)C(=O)NCCCCCCCCCCC(=O)O)NC(=O)[C@H](CCC(N)=O)NC(=O)[C@H](C(C)C)NC(=O)[C@H](CC3CCCCC3)NC(=O)[C@H](CCN)NC(=O)[C@@H](CC(C)C)NC(=O)[C@H](CCN)NC(=O)[C@H](CCCNC(N)=O)NC(=O)[C@H](Cc3ccc(-c4ccccc4)cc3)NC(=O)[C@H](C(C)C)NC2=O)c1 [Compound 2797] ({CH2CO}-RY(Carboxymethyl)D[Phe(3-Me)]V[Bip][Cit][Dab][dL][Dab][Cha]VQC[Dab][Aun]-OH; thioether N-14),11.8 nM
8,Cc1cccc(C[C@@H]2NC(=O)[C@H](CC(=O)O)NC(=O)[C@H](Cc3ccc(OCC(=O)O)cc3)NC(=O)[C@H](CCCNC(=N)N)NC(=O)CSC[C@@H](C(=O)N[C@@H](CCCN)C(=O)NCCCCCCCCCCC(=O)O)NC(=O)[C@H](CCC(N)=O)NC(=O)[C@H](C(C)C)NC(=O)[C@H](CC3CCCCC3)NC(=O)[C@H](CCN)NC(=O)[C@@H](CC(C)C)NC(=O)[C@H](CCN)NC(=O)[C@H](CCCNC(N)=O)NC(=O)[C@H](Cc3ccc(-c4ccccc4)cc3)NC(=O)[C@H](C(C)C)NC2=O)c1 [Compound 2798] ({CH2CO}-RY(Carboxymethyl)D[Phe(3-Me)]V[Bip][Cit][Dab][dL][Dab][Cha]VQC[Orn][Aun]-OH; thioether N-14),7.1 nM
9,Cc1cccc(C[C@@H]2NC(=O)[C@H](CC(=O)O)NC(=O)[C@H](Cc3ccc(OCC(=O)O)cc3)NC(=O)[C@H](CCCNC(=N)N)NC(=O)CSC[C@@H](C(=O)N[C@@H](CCCN)C(=O)NCCCCCCCCCCC(=O)O)NC(=O)[C@@H](CCC(N)=O)NC(=O)[C@H](C(C)C)NC(=O)[C@H](CC3CCCCC3)NC(=O)[C@H](CCN)NC(=O)[C@@H](CC(C)C)NC(=O)[C@H](CCN)NC(=O)[C@H](CCCNC(N)=O)NC(=O)[C@H](Cc3ccc(-c4ccccc4)cc3)NC(=O)[C@H](C(C)C)NC2=O)c1 [Compound 2799] ({CH2CO}-RY(Carboxymethyl)D[Phe(3-Me)]V[Bip][Cit][Dab][dL][Dab][Cha]V[dQ]C[Orn][Aun]-OH; thioether N-14),20 nM
10,Cc1cccc(C[C@@H]2NC(=O)[C@H](CC(=O)O)NC(=O)[C@H](Cc3ccc(O)cc3)NC(=O)[C@H](CC(N)=O)NC(=O)CSC[C@@H](C(=O)N[C@@H](CCCCN)C(=O)NCCCCCCCCCCC(=O)O)NC(=O)[C@H](CN)NC(=O)[C@H](C(C)C)NC(=O)[C@H](CC(C)C)NC(=O)[C@H](CCN)NC(=O)[C@@H](CC(C)C)NC(=O)[C@H](CCCN)NC(=O)[C@H](CCCNC(N)=O)NC(=O)[C@H](Cc3ccc(-c4ccccc4)cc3)NC(=O)[C@H](C(C)C)NC2=O)c1 [Compound 2800] ({CH2CO}-NYD[Phe(3-Me)]V[Bip][Cit][Orn][dL][Dab]LV[Dap]CK[Aun]-OH; thioether N-14),84.6 nM
11,CC(C)C[C@H]1NC(=O)[C@H](CCCN)NC(=O)[C@H](C(C)C)NC(=O)[C@H](Cc2ccc(-c3ccccc3)cc2)NC(=O)[C@H](C(C)C)NC(=O)[C@H](Cc2c[nH]c3ccccc23)NC(=O)[C@H](CC(=O)O)NC(=O)[C@H](Cc2ccc(OCC(=O)O)cc2)NC(=O)[C@H](CN)NC(=O)CSC[C@@H](C(=O)N[C@@H](CCCCN)C(=O)NCCCCCCCCCCC(=O)O)NC(=O)[C@H](CN)NC(=O)[C@H](C(C)C)NC(=O)[C@H](CC2CCCCC2)NC(=O)[C@H](Cc2cc[nH]c2)NC1=O [Compound 2801] ({CH2CO}-[Dap]Y(Carboxymethyl)DWV[Bip]V[Orn][dL][X10][Cha]V[Dap]CK[Aun]-OH; thioether N-14),327 nM
12,Cc1cccc(C[C@@H]2NC(=O)[C@H](CC(=O)O)NC(=O)[C@H](Cc3ccc(OCC(=O)O)cc3)NC(=O)[C@H](CCCNC(=N)N)NC(=O)CSC[C@@H](C(=O)N[C@@H](CCCCN)C(=O)NCCCCCCCCCCC(=O)O)NC(=O)[C@H](CN)NC(=O)[C@H](C(C)C)NC(=O)[C@H](CC3CCCCC3)NC(=O)[C@H](CCN)NC(=O)[C@@H](CC(C)C)NC(=O)[C@H](CCN)NC(=O)[C@H](CCCNC(N)=O)NC(=O)[C@H](Cc3ccc(-c4ccccc4)cc3)NC(=O)[C@H](C(C)C)NC2=O)c1 [Compound 2802] ({CH2CO}-RY(Carboxymethyl)D[Phe(3-Me)]V[Bip][Cit][Dab][dL][Dab][Cha]V[Dap]CK[Aun]-OH; thioether N-14),15.4 nM
13,Cc1cccc(C[C@@H]2NC(=O)[C@H](CC(=O)O)NC(=O)[C@H](Cc3ccc(O)cc3)NC(=O)[C@H](CC(N)=O)NC(=O)CSC[C@@H](C(=O)N[C@@H](CCCCN)C(=O)NCCCCCCCCCCC(=O)O)NC(=O)[C@H](CCCN)NC(=O)[C@H](C(C)C)NC(=O)[C@H](CC(C)C)NC(=O)[C@H](CCN)NC(=O)[C@@H](CC(C)C)NC(=O)[C@H](CCCN)NC(=O)[C@H](CCCNC(N)=O)NC(=O)[C@H](Cc3ccc(-c4ccccc4)cc3)NC(=O)[C@H](C(C)C)NC2=O)c1 [Compound 2803] ({CH2CO}-NYD[Phe(3-Me)]V[Bip][Cit][Orn][dL][Dab]LV[Orn]CK[Aun]-OH; thioether N-14),73.9 nM
14,CC(C)C[C@H]1NC(=O)[C@H](CCCN)NC(=O)[C@H](C(C)C)NC(=O)[C@H](Cc2ccc(-c3ccccc3)cc2)NC(=O)[C@H](C(C)C)NC(=O)[C@H](Cc2c[nH]c3ccccc23)NC(=O)[C@H](CC(=O)O)NC(=O)[C@H](Cc2ccc(OCC(=O)O)cc2)NC(=O)[C@H](CN)NC(=O)CSC[C@@H](C(=O)N[C@@H](CCCCN)C(=O)NCCCCCCCCCCC(=O)O)NC(=O)[C@H](CCCN)NC(=O)[C@H](C(C)C)NC(=O)[C@H](CC2CCCCC2)NC(=O)[C@H](Cc2c[nH]cn2)NC1=O [Compound 2804] ({CH2CO}-[Dap]Y(Carboxymethyl)DWV[Bip]V[Orn][dL]H[Cha]V[Orn]CK[Aun]-OH; thioether N-14),51 nM
